# Reference: PubChem BioAssay (NCI)
#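 Step 1: Grow cells in 96-well plates. Step 2: Expose to compound for 48 hours at 5 concentrations. Step 3: Interpolate endpoints linearly; if unreached, use highest concentration. GI50 marks 50% less growth. TGI marks complete inhibition of growth.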
# What was measured:
# Test in all cases: DTP human tumour cell line panel, 48 h
# [1] = tested on: HOP-62 NSCLC
# [2] = tested on: K-562 leukemia
# [3] = tested on: SK-MEL-2 melanoma
# [4] = tested on: EKVX NSCLC
# [5] = tested on: SN12C renal
# [6] = tested on: NCI/ADR-RES ovarian
# [7] = tested on: M14 melanoma
# [8] = tested on: HL-60(TB) leukemia
# [9] = tested on: OVCAR-5 ovarian
# [10] = tested on: MOLT-4 leukemia
# [11] = tested on: SNB-75 CNS
# [12] = tested on: NCI-H460 lung
# [13] = tested on: NCI-H522 lung
# [14] = tested on: SNB-19 CNS
# [15] = tested on: CAKI-1 renal
# [16] = tested on: HCT-15 colon
# [17] = tested on: COLO 205 colon
# [18] = tested on: TK-10 renal
# [19] = tested on: RXF 393 renal
# [20] = tested on: CCRF-CEM leukemia
# [21] = tested on: A498 renal
# [22] = tested on: A549 NSCLC
# [23] = tested on: NCI-H23 lung
# [24] = tested on: HS 578T breast
# [25] = tested on: SK-MEL-28 melanoma
# [26] = tested on: MDA-MB-231 breast
# [27] = tested on: MDA-MB-435
# [28] = tested on: OVCAR-8 ovarian
# [29] = tested on: HCT-116 colon
# [30] = tested on: SK-MEL-5 melanoma
# [31] = tested on: UACC-62 melanoma
# [32] = tested on: DU-145 prostate
# [33] = tested on: KM12 colon
# [34] = tested on: HOP-92 NSCLC
# [35] = tested on: HCC-2998 colon
# [36] = tested on: HT29 colon
# [37] = tested on: 786-0 renal
# [38] = tested on: SF-268 CNS
# [39] = tested on: SK-OV-3 ovarian
# [40] = tested on: RPMI-8226 leukemia
# [41] = tested on: ACHN renal
# [42] = tested on: OVCAR-3 ovarian
# [43] = tested on: UACC-257 melanoma
# [44] = tested on: UO-31 renal
# [45] = tested on: MALME-3M melanoma
# [46] = tested on: BT-549 breast
# [47] = tested on: U251 CNS
# [48] = tested on: PC-3 prostate
# [49] = tested on: SF-539 CNS
# [50] = tested on: NCI-H226 lung
# [51] = tested on: T-47D breast
# [52] = tested on: MCF7 breast
# [53] = tested on: SF-295 CNS
# [54] = tested on: SR leukemia
# [55] = tested on: OVCAR-4 ovarian
# [56] = tested on: SW-620 colon
# [57] = tested on: IGROV1 ovarian
# [58] = tested on: LOX IMVI melanoma
compound,measurement,setting,value
CC1(C)C2CCC13C(=O)C1OC3(C2)C2C(=O)c3c(O)cccc3C(=O)C12 (stereo unspecified),GI50,[1],16.1 µM
same,TGI,[1],31.7 µM
same,GI50,[2],0.703 µM
same,TGI,[2],1.79 µM
same,GI50,[3],3.69 µM
same,TGI,[3],> 100 µM
same,GI50,[4],8.37 µM
same,TGI,[4],21.4 µM
same,GI50,[5],0.711 µM
same,TGI,[5],1.84 µM
same,GI50,[6],2.1 µM
same,TGI,[6],6.01 µM
same,GI50,[7],3.24 µM
same,TGI,[7],12.2 µM
same,GI50,[8],0.355 µM
same,TGI,[8],1.2 µM
same,GI50,[9],4.25 µM
same,TGI,[9],13.7 µM
same,GI50,[10],0.111 µM
same,GI50,[11],7.28 µM
same,TGI,[11],22.3 µM
same,GI50,[12],3.75 µM
same,TGI,[12],21.2 µM
same,GI50,[13],3.2 µM
same,TGI,[13],10.1 µM
same,GI50,[14],10.6 µM
same,TGI,[14],23.9 µM
same,GI50,[15],1.4 µM
same,TGI,[15],2.95 µM
same,GI50,[16],0.362 µM
same,TGI,[16],0.905 µM
same,GI50,[17],4.09 µM
same,TGI,[17],16.1 µM
same,GI50,[18],0.979 µM
same,TGI,[18],2.83 µM
same,GI50,[19],1.56 µM
same,TGI,[19],3.5 µM
same,GI50,[20],0.212 µM
same,TGI,[20],1.14 µM
same,GI50,[21],1.89 µM
same,TGI,[21],3.49 µM
same,GI50,[22],1.24 µM
same,TGI,[22],4.57 µM
same,GI50,[23],2.24 µM
same,TGI,[23],6.55 µM
same,GI50,[24],0.988 µM
same,TGI,[24],2.86 µM
same,GI50,[25],3.58 µM
same,TGI,[25],21.1 µM
same,GI50,[26],0.472 µM
same,TGI,[26],1.33 µM
same,GI50,[27],0.818 µM
same,TGI,[27],2.5 µM
same,GI50,[28],0.821 µM
same,TGI,[28],2.68 µM
same,GI50,[29],1.09 µM
same,TGI,[29],2.3 µM
same,GI50,[30],0.46 µM
same,TGI,[30],1.64 µM
same,GI50,[31],0.2 µM
same,TGI,[31],0.403 µM
same,GI50,[32],0.196 µM
same,TGI,[32],0.386 µM
same,GI50,[33],2.6 µM
same,TGI,[33],14.9 µM
same,GI50,[34],0.566 µM
same,TGI,[34],1.89 µM
same,GI50,[35],1.94 µM
same,TGI,[35],4.16 µM
same,GI50,[36],3.58 µM
same,TGI,[36],9.4 µM
same,GI50,[37],0.319 µM
same,TGI,[37],0.829 µM
same,GI50,[38],3.06 µM
same,TGI,[38],15.3 µM
same,GI50,[39],10.9 µM
same,TGI,[39],23.9 µM
same,GI50,[40],0.177 µM
same,TGI,[40],0.441 µM
same,GI50,[41],1.56 µM
same,TGI,[41],2.98 µM
same,GI50,[42],0.18 µM
same,TGI,[42],0.648 µM
same,GI50,[43],0.792 µM
same,TGI,[43],2.43 µM
same,GI50,[44],4.5 µM
same,TGI,[44],18.5 µM
same,GI50,[45],0.29 µM
same,TGI,[45],1.02 µM
same,GI50,[46],1.2 µM
same,TGI,[46],3.34 µM
same,GI50,[47],0.64 µM
same,TGI,[47],1.81 µM
same,GI50,[48],0.835 µM
same,TGI,[48],3.09 µM
same,GI50,[49],2.64 µM
same,TGI,[49],8.05 µM
same,GI50,[50],7.68 µM
same,TGI,[50],23.8 µM
same,GI50,[51],0.906 µM
same,TGI,[51],6.58 µM
same,GI50,[52],3.37 µM
same,TGI,[52],15.4 µM
same,GI50,[53],0.156 µM
same,TGI,[53],0.442 µM
O=c1oc2ccc(F)cc2c(=O)n1-c1ccc(Br)cc1F,GI50,[1],1.64 µM
same,TGI,[1],7.25 µM
same,GI50,[2],0.422 µM
same,TGI,[2],> 100 µM
same,GI50,[3],0.46 µM
same,TGI,[3],3.98 µM
same,GI50,[4],1.85 µM
same,TGI,[4],9.74 µM
same,GI50,[5],0.376 µM
same,TGI,[5],7.6 µM
same,GI50,[6],0.85 µM
same,TGI,[6],8.9 µM
same,GI50,[7],0.434 µM
same,TGI,[7],5.08 µM
same,GI50,[54],0.578 µM
same,TGI,[54],> 100 µM
same,GI50,[9],3.94 µM
same,TGI,[9],> 100 µM
same,GI50,[11],0.252 µM
same,TGI,[11],2.79 µM
same,GI50,[12],0.574 µM
same,TGI,[12],23.7 µM
same,GI50,[13],0.363 µM
same,TGI,[13],9.38 µM
same,GI50,[14],0.45 µM
same,TGI,[14],> 80.8 µM
same,GI50,[15],0.393 µM
same,TGI,[15],3.69 µM
same,GI50,[16],1.29 µM
same,TGI,[16],10.9 µM
same,GI50,[55],1.27 µM
same,TGI,[55],> 42.8 µM
same,GI50,[17],4.03 µM
same,TGI,[17],15.5 µM
same,GI50,[18],4.22 µM
same,TGI,[18],18 µM
same,GI50,[19],0.923 µM
same,TGI,[19],4.66 µM
same,GI50,[20],2.72 µM
same,TGI,[20],> 100 µM
same,GI50,[21],0.184 µM
same,TGI,[21],0.72 µM
same,GI50,[22],2.29 µM
same,TGI,[22],> 100 µM
same,GI50,[23],0.481 µM
same,GI50,[24],0.621 µM
same,TGI,[24],7.87 µM
same,GI50,[25],0.373 µM
same,TGI,[25],2.48 µM
same,GI50,[56],1.11 µM
same,TGI,[56],25.5 µM
same,GI50,[26],0.434 µM
same,TGI,[26],7.28 µM
same,GI50,[27],0.623 µM
same,TGI,[27],6.64 µM
same,GI50,[57],0.444 µM
same,TGI,[57],22.7 µM
same,GI50,[28],1.59 µM
same,TGI,[28],> 100 µM
same,GI50,[29],0.436 µM
same,TGI,[29],2.69 µM
same,GI50,[30],0.267 µM
same,TGI,[30],0.737 µM
same,GI50,[31],0.284 µM
same,TGI,[31],1.16 µM
same,GI50,[32],0.781 µM
same,TGI,[32],22.8 µM
same,GI50,[33],2.23 µM
same,TGI,[33],6.16 µM
same,GI50,[34],0.168 µM
same,TGI,[34],0.528 µM
same,GI50,[35],2.9 µM
same,TGI,[35],10.8 µM
same,GI50,[36],3.4 µM
same,TGI,[36],> 44.3 µM
same,GI50,[37],2.79 µM
same,TGI,[37],9.42 µM
same,GI50,[38],0.633 µM
same,TGI,[38],13.7 µM
same,GI50,[39],0.427 µM
same,TGI,[39],6.25 µM
same,GI50,[40],0.27 µM
same,TGI,[40],1.05 µM
same,GI50,[41],0.59 µM
same,TGI,[41],13.6 µM
same,GI50,[42],0.436 µM
same,TGI,[42],12.9 µM
same,GI50,[43],0.528 µM
same,TGI,[43],7.37 µM
same,GI50,[44],0.194 µM
same,TGI,[44],1.7 µM
same,GI50,[45],0.317 µM
same,TGI,[45],2.03 µM
same,GI50,[46],0.411 µM
same,TGI,[46],2.19 µM
same,GI50,[47],0.786 µM
same,TGI,[47],> 100 µM
same,GI50,[48],1.52 µM
same,TGI,[48],7.42 µM
same,GI50,[58],0.456 µM
same,TGI,[58],4.24 µM
same,GI50,[49],0.45 µM
same,TGI,[49],6.35 µM
same,GI50,[50],1.08 µM
same,TGI,[50],4.87 µM
same,GI50,[51],0.651 µM
same,TGI,[51],7.61 µM
same,GI50,[52],2.04 µM
same,TGI,[52],> 29.5 µM
same,GI50,[53],1.82 µM
same,TGI,[53],3.63 µM
